Data taken from EP4663204A1, “COMPOUNDS USEFUL FOR THE MODULATION OF THE ACTIVITY OF STING” (Sulis Therapeutics ApS, priority 2024, dated 2025).
Entries after “also recorded” stand apart in the source; their conditions may differ.

Legend:
Type in all cases: cell-based
Set-up in all cases: To assess STING degradation and recovery in human foreskin fibroblasts HFF-1 cells; host or cells: HFF-1 human foreskin fibroblasts
STING [1] = biological target: T1, STING (Homo sapiens, UniProt Q86WV6); assay: Western Blot of diABZI-induced STING activation in HFF-1 cells (Figure 10A); details: 5 µM for 15 min, then 300 nM diABZI for 2 h or 5 h, versus diABZI c3 alone
Experimental: (§1) To assess whether S1 STING ligands inhibit STING activation, primary human skin fibroblasts (Figure 9) or HFF-1 cells (Figure 10) were treated with various compounds which comprise only an S1 ligand domain and a Linker domain before undergoing Western Blot analysis as described below.
(§2) Cell culture methods as described above for primary human skin fibroblast and HFF-1 cells were used in the current experiments. Methods as described above for H596, H1650 and HaCat cells were applied for cell lysis and western blotting.
In Figure 10A, HFF-1 cells were treated with 5 µM of compounds A11, A25, A26, or A30, or 0.5 µM STING antagonist control for 15 min followed prior to addition of 300 nM diABZI and incubation for 2 h or 5 h. The cells were lysed and analysed on WB. As additional controls, cells were left untreated (UT), treated with Lipofectamine (Lipo control) or with compounds A26 or A30 as single agent. […]

STING [2] = biological target: T1, STING; assay: Western Blot of cGAMP-induced STING activation in HFF-1 cells (Figure 10B); details: 5 µM for 15 min, then 8 µg/mL cGAMP for 2 h or 5 h, versus cGAMP alone
Experimental: as §1, §2
(§3) In Figure 10B, similar experiments were performed as for Figure 10A, except that cells were activated with 8 µg/mL cGAMP instead of diABZI c3. In addition, the controls used in this set of experiments was A11, A25, A26 and A30 as a single agent with no cGAMP activation.

STING [3] = biological target: T1, STING; assay: Western Blot of STING agonist activity of compounds as single agent in HFF-1 cells; details: compound as single agent, no activation
Experimental: S1 is a STING ligand. […] Any standard method known in the art may be used to determine STING agonist activity. For example, STING agonist activity (or lack thereof) can be measured as described in Examples 11 and/or Example 12. For example, following the method described in Example 11, cells may be incubated with a compound comprising a S1 STING ligand. The cells may be lysed and Western Blotting performed. Western blots may be probed for phospho-STING and/or phospho-TBK1. Cells incubated with STING ligands which are not agonists will not result in detectable phospho-STING or phospho-TBK1 using the methods outlined above and in Examples 11. In another example, following the method described in Example 12, human skin fibroblasts may be pretreated for 2hours with a serial dilution of a test compounds, for example a compound comprising an S1 ligand, prior to stimulation with a STING agonist (e.g. 300 nM GSK STING agonist). Supernatants may then be harvested after STING agonist stimulation (e.g. after 20 h stimulation). IFN-a/b may be measured in the supernatants using HEK-Blue IFN-α/β bioassay (Invivogen) to determine a half-maximal inhibitory concentration of a test compound.
as §1, §2
In Figure 10A, HFF-1 cells were treated with 5 µM of compounds A11, A25, A26, or A30, or 0.5 µM STING antagonist control for 15 min followed prior to addition of 300 nM diABZI and incubation for 2 h or 5 h. The cells were lysed and analysed on WB. As additional controls, cells were left untreated (UT), treated with Lipofectamine (Lipo control) or with compounds A26 or A30 as single agent. The WB membrane was probed for p-STING, STING, p-IRF3, p-TBK1, and Vinculin.
as §3

T1 sequence (Q86WV6 whole entry, the tested form may be a part): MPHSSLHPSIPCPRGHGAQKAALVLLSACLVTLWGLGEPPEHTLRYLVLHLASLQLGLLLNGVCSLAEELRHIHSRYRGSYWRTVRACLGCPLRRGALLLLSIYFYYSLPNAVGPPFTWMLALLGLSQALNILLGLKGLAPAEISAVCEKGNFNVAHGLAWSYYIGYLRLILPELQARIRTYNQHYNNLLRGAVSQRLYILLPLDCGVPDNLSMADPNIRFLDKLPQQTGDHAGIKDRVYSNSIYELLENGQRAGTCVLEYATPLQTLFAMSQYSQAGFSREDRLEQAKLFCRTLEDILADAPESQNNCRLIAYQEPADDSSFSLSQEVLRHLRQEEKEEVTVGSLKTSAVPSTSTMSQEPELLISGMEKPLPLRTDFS

Compound | STING, TBK1 and IRF3 phosphorylation (STING [1]) | STING, TBK1 and IRF1 phosphorylation (STING [2]) | phosphorylation of STING, IRF1 or TBK1 (STING [3])
CCn1nc(C)cc1C(=O)N=c1n(C)c2cc(C(N)=O)ccc2n1CCC(CCn1c(=NC(=O)c2cc(C)nn2CC)n(C)c2cc(C(N)=O)ccc21)OCC(=O)N1CCC[C@H]1c1ccccc1 (stereo partly drawn) [A25, 1-(3-{2-[(S)-2-Phenyl-1-pyrrolidinyl]-2-oxoethoxy}-5-{5-carbamoyl-2-[(1-ethyl-3-methyl-5-pyrazolyl)carbonylimino]-3-methyl-2,3-dihydro-1H-1,3-benzimidazol-1-yl}pentyl)-2-[(1-ethyl-3-methyl-5-pyrazolyl)carbonylimino]-3-methyl-2,3-dihydro-1H-1,3-benzimidazole-5-carboxamide] | lower | lower | do not induce STING, IRF3 or TBK1 phosphorylation and activation alone
CCn1nc(C)cc1C(=O)N=c1n(C)c2cc(C(N)=O)ccc2n1CCC(CCn1c(=NC(=O)c2cc(C)nn2CC)n(C)c2cc(C(N)=O)ccc21)OCC(=O)N1CCC[C@H]1C(=O)N1CCc2cc(OC)ccc2C1 (stereo partly drawn) [A26, 1-[3-(2-{(S)-2-[(6-Methoxy-1,2,3,4-tetrahydro-2-isoquinolyl)carbonyl]-1-pyrrolidinyl}-2-oxoethoxy)-5-{5-carbamoyl-2-[(1-ethyl-3-methyl-5-pyrazolyl)carbonylimino]-3-methyl-2,3-dihydro-1H-1,3-benzimidazol-1-yl}pentyl]-2-[(1-ethyl-3-methyl-5-pyrazolyl)carbonylimino]-3-methyl-2,3-dihydro-1H-1,3-benzimidazole-5-carboxamide] | lower; also recorded: inhibited STING, IRF3 and TBK1 phosphorylation and activation | lower; also recorded: inhibited STING, IRF3 and TBK1 phosphorylation and activation | do not induce STING, IRF3 or TBK1 phosphorylation and activation alone
CCn1nc(C)cc1C(=O)N=c1n(C)c2cc(C(N)=O)ccc2n1CCC(CCn1c(=NC(=O)c2cc(C)nn2CC)n(C)c2cc(C(N)=O)ccc21)OCC(=O)N1CCOC[C@@H]1c1ccccc1 (stereo partly drawn) [A30, 1-(3-{2-[(S)-3-Phenyl-4-morpholinyl]-2-oxoethoxy}-5-{5-carbamoyl-2-[(1-ethyl-3-methyl-5-pyrazolyl)carbonylimino]-3-methyl-2,3-dihydro-1H-1,3-benzimidazol-1-yl}pentyl)-2-[(1-ethyl-3-methyl-5-pyrazolyl)carbonylimino]-3-methyl-2,3-dihydro-1H-1,3-benzimidazole-5-carboxamide] | lower; also recorded: inhibited STING, IRF3 and TBK1 phosphorylation and activation | lower; also recorded: inhibited STING, IRF3 and TBK1 phosphorylation and activation | do not induce STING, IRF3 or TBK1 phosphorylation and activation alone
